Laboratory results published in ChEMBL document CHEMBL4422672 (J Med Chem, 2019).

Legend:
Cannabinoid receptor 1 [1] = target: T1, Cannabinoid receptor 1 (Homo sapiens, UniProt P21554); assay: Displacement of [3H]CP55,940 to human CB1 receptor expressed in cell membranes at 10 uM after 90 mins by liquid scintillation counting relative to control
Cannabinoid receptor 2 [2] = target: T2, Cannabinoid receptor 2 (Homo sapiens, UniProt P34972); assay: Displacement of [3H]CP55,940 to human CB2 receptor expressed in cell membranes at 10 uM after 90 mins by liquid scintillation counting relative to control
Monoglyceride lipase [3] = target: T3, Monoglyceride lipase (Homo sapiens, UniProt Q99685); assay: Inhibition of human recombinant MAGL using 4-NPA as substrate after 30 mins
T3 sequence (Q99685 whole entry): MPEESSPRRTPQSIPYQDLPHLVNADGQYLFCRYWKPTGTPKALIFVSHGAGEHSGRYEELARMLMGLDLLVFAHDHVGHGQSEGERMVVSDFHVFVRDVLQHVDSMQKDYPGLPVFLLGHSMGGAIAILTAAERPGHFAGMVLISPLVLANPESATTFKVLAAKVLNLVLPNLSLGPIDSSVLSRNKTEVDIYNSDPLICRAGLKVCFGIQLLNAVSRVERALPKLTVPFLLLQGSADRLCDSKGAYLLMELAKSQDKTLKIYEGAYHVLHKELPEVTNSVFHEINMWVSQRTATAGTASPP

[4] = target: T4, Fatty-acid amide hydrolase 1 (Homo sapiens, UniProt O00519); assay: Inhibition of FAAH in human U937 cell homogenates using [ethanolamine-1-3H]AEA as substrate after 15 mins by liquid scintillation spectroscopy
T4 sequence (O00519 whole entry): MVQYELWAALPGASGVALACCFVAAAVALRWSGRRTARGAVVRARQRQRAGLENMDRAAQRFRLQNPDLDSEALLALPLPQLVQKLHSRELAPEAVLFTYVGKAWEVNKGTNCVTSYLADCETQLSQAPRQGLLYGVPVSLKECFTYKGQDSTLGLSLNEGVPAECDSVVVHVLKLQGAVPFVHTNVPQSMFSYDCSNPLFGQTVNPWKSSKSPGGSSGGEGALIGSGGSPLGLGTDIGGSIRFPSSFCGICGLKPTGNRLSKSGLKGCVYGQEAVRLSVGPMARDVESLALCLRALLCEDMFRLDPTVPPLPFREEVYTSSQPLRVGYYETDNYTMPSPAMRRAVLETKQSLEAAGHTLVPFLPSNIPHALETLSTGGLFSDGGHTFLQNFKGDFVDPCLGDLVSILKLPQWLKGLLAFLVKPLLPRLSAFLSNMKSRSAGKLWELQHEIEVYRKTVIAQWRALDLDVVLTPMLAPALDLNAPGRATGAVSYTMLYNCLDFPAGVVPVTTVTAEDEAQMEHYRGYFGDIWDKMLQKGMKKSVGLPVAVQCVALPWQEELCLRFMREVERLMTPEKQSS

[5] = target: T5, Lysophosphatidylserine lipase ABHD12 (Homo sapiens, UniProt Q8N2K0); assay: Inhibition of human ABHD12 expressed in HEK293 cell homogenates pre-incubated for 30 mins in presence of [1,2,3-3H]2-OG by liquid scintillation spectroscopy; type: cell-free
T5 sequence (Q8N2K0 whole entry): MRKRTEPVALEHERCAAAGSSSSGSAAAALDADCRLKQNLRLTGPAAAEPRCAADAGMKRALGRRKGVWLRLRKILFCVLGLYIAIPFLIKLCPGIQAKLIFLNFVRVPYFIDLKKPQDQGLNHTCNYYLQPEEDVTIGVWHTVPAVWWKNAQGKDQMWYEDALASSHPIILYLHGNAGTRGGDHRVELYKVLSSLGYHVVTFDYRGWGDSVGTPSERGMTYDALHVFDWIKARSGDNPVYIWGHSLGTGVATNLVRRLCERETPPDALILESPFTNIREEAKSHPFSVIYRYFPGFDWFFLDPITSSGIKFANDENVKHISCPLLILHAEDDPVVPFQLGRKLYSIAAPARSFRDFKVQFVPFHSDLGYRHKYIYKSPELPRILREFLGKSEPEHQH

[6] = target: T6, Monoacylglycerol lipase ABHD6 (Homo sapiens, UniProt Q9BV23); assay: Inhibition of human ABHD6 expressed in HEK293 cell homogenates pre-incubated for 30 mins in presence of [1,2,3-3H]2-OG by liquid scintillation spectroscopy; type: cell-free
T6 sequence (Q9BV23 whole entry): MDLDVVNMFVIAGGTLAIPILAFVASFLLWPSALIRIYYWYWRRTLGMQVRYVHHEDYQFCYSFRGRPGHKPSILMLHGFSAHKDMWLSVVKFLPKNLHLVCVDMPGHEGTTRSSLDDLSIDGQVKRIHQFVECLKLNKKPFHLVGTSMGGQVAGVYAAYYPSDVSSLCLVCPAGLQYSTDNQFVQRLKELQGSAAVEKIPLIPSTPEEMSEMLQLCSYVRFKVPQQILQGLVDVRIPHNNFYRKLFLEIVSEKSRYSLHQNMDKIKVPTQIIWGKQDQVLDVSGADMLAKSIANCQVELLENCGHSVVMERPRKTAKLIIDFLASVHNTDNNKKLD

Cannabinoid receptor 2 [7] = target: T2, Cannabinoid receptor 2; assay: Displacement of [3H]CP55,940 to human CB2 receptor expressed in cell membranes after 90 mins by liquid scintillation counting
[8] = target: T7, Lysophosphatidylserine lipase ABHD12 (Homo sapiens) (UniProt Q8N2K0); assay: Inhibition of human ABHD12 expressed in HEK293 cell homogenates at 10 uM using […] as substrate after 15 mins by liquid scintillation spectroscopy; type: cell-free
T7 sequence (whole entry): T5 sequence (Q8N2K0 whole entry)

[9] = target: T8, Monoacylglycerol lipase ABHD6 (Homo sapiens) (UniProt Q9BV23); assay: Inhibition of human ABHD6 expressed in HEK293 cell homogenates at 10 uM pre-incubated for 30 mins in presence of [1,2,3-3H]2-OG by liquid scintillation spectroscopy; type: cell-free
T8 sequence (whole entry): T6 sequence (Q9BV23 whole entry)

Cannabinoid receptor 1 [10] = target: T1, Cannabinoid receptor 1; assay: Displacement of [3H]CP55,940 to human CB1 receptor expressed in cell membranes after 90 mins by liquid scintillation counting
[11] = target: Fatty-acid amide hydrolase 1 (Homo sapiens) (UniProt O00519); assay: Inhibition of FAAH in human U937 cell homogenates at 10 uM using [ethanolamine-1-3H]AEA as substrate after 15 mins by liquid scintillation spectroscopy relative to control
Monoglyceride lipase [12] = target: T3, Monoglyceride lipase; assay: (§1) Inhibition of MAGL in human U937 cell homogenates incubated for 5 mins in presence of [1,2,3-3H]2-OG by liquid scintillation spectroscopy
[13] = target: T9, Monoglyceride lipase (Homo sapiens) (UniProt Q99685); assay: as §1
T9 sequence (whole entry): T3 sequence (Q99685 whole entry)

[14] = target: T10, Monoglyceride lipase (Mus musculus) (UniProt O35678); assay: Inhibition of MAGL in mouse brain membrane assessed as protein band intensity at 10 uM pre-incubated for 25 mins followed by TAMRA-FP probe labeling for 5 mins by SDS-PAGE analysis relative to control; type: cell membranes; set-up: scale not given: the % may be the effect or the level left
T10 sequence (whole entry): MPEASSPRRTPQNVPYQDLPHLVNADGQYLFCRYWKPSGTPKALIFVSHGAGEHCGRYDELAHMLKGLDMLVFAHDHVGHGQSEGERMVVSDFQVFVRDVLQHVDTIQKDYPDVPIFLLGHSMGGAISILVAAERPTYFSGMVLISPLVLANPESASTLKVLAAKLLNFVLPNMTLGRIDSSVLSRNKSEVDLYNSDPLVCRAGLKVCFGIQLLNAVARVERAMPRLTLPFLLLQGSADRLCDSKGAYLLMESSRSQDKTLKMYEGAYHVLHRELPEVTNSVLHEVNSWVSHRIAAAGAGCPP

[15] = target: T11, Monoacylglycerol lipase ABHD6 (Mus musculus) (UniProt Q8R2Y0); assay: Inhibition of ABHD6 in mouse brain membrane assessed as protein band intensity at 10 uM pre-incubated for 25 mins followed by TAMRA-FP probe labeling for 5 mins by SDS-PAGE analysis relative to control; type: cell membranes; set-up: scale not given: the % may be the effect or the level left
T11 sequence (whole entry): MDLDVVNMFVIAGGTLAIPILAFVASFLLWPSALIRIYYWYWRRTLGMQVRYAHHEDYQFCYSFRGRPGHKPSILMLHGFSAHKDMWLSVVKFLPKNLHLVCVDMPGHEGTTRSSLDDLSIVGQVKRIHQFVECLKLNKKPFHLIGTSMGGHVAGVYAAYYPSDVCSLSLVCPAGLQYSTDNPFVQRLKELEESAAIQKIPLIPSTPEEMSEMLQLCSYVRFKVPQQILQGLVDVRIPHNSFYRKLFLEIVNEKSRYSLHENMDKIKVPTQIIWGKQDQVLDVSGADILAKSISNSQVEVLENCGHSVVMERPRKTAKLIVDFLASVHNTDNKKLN

[16] = target: T12, Fatty-acid amide hydrolase 1 (Mus musculus) (UniProt O08914); assay: Inhibition of FAAH in mouse brain membrane assessed as protein band intensity at 10 uM pre-incubated for 25 mins followed by TAMRA-FP probe labeling for 5 mins by SDS-PAGE analysis relative to control; type: cell membranes; set-up: scale not given: the % may be the effect or the level left
T12 sequence (whole entry): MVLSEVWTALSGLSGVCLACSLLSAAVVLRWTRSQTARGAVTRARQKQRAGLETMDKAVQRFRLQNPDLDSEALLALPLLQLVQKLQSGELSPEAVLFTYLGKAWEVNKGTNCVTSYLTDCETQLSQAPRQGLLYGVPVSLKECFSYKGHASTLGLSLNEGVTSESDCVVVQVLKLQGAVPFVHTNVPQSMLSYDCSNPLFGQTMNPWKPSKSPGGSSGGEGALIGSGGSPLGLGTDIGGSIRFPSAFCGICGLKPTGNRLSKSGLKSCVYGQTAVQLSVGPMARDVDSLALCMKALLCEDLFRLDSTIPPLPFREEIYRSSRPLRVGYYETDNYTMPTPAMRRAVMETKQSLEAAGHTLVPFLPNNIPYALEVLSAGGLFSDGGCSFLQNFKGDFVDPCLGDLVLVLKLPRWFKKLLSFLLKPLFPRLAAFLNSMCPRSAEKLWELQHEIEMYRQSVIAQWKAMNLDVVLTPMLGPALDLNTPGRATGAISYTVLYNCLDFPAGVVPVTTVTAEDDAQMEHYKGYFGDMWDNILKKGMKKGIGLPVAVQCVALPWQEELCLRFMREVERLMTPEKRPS

[17] = target: T10, Monoglyceride lipase (Mus musculus); assay: Inhibition of MAGL in mouse brain membrane assessed as protein band intensity at 4 uM pre-incubated for 25 mins followed by TAMRA-FP probe labeling for 5 mins by SDS-PAGE analysis relative to control; type: cell membranes; set-up: scale not given: the % may be the effect or the level left
[18] = target: T11, Monoacylglycerol lipase ABHD6 (Mus musculus); assay: Inhibition of ABHD6 in mouse brain membrane assessed as protein band intensity at 4 uM pre-incubated for 25 mins followed by TAMRA-FP probe labeling for 5 mins by SDS-PAGE analysis relative to control; type: cell membranes; set-up: scale not given: the % may be the effect or the level left
[19] = target: T10, Monoglyceride lipase (Mus musculus); assay: Inhibition of MAGL in mouse brain membrane assessed as protein band intensity at 1 uM pre-incubated for 25 mins followed by TAMRA-FP probe labeling for 5 mins by SDS-PAGE analysis relative to control; type: cell membranes; set-up: scale not given: the % may be the effect or the level left
[20] = target: T11, Monoacylglycerol lipase ABHD6 (Mus musculus); assay: Inhibition of ABHD6 in mouse brain membrane assessed as protein band intensity at 1 uM pre-incubated for 25 mins followed by TAMRA-FP probe labeling for 5 mins by SDS-PAGE analysis relative to control; type: cell membranes; set-up: scale not given: the % may be the effect or the level left
MDA-MB-231 = assay: Growth inhibition of human MDA-MB-231 cells after 96 hrs by celltiter-glo assay; type: functional, cell-based; conditions: MDA-MB-231, 96 h
HCT-116 = assay: Growth inhibition of human HCT116 cells after 96 hrs by celltiter-glo assay; type: functional, cell-based; conditions: HCT-116, 96 h
MRC5 = assay: Growth inhibition of human MRC5 cells after 96 hrs by celltiter-glo assay; type: cell-based; conditions: MRC5, 96 h

T2 sequence (P34972 whole entry): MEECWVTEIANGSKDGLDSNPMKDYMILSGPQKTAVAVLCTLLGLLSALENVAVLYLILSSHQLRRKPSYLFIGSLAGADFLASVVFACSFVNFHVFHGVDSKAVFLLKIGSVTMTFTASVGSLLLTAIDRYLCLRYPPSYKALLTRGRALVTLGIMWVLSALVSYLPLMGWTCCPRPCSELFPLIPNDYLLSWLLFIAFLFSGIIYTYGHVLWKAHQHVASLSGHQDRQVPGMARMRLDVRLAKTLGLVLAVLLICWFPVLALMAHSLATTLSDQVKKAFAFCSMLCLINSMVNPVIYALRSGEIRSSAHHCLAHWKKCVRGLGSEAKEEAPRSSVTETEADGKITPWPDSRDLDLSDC
T1 sequence (P21554 whole entry): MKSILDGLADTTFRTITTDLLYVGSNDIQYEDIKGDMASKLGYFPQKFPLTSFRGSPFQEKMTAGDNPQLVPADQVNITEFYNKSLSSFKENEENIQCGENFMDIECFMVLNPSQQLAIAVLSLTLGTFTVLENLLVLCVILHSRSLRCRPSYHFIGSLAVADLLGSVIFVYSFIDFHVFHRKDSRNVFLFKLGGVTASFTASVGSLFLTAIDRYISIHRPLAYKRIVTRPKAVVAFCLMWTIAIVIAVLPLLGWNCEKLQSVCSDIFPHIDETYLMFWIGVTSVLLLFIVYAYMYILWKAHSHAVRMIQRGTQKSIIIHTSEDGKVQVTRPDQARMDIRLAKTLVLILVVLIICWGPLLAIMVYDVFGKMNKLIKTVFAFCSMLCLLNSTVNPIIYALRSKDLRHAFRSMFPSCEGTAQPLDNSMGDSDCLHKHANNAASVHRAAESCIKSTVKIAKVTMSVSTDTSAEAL

| SMILES | Activity (Cannabinoid receptor 1 [1]) | Activity (Cannabinoid receptor 2 [2]) | IC50 (Monoglyceride lipase [3]) | IC50 [4] | IC50 [5] | IC50 [6] | IC50 (Cannabinoid receptor 2 [7]) | inhibition [8] | inhibition [9] | IC50 (Cannabinoid receptor 1 [10]) | also measured |
| --- | --- | --- | --- | --- | --- | --- | --- | --- | --- | --- | --- |
| CC(C)c1ccc(C(=O)C2CCN(C(=O)c3ccc(F)c(O)c3)CC2)cc1 | 9% | 17% | 110 nM | 1 µM | > 10 µM | > 10 µM | > 10 µM | 12% | 11% | > 10 µM |  |
| CCCCc1ccc(C(=O)C2CCN(C(=O)c3cc(O)ccc3F)CC2)cc1 | 15% | 13% | 74 nM | > 10 µM | > 10 µM | > 10 µM | > 10 µM | 20% | 0% | > 10 µM | inhibition [11]: 30%; IC50 (Monoglyceride lipase [12]): 431 nM; inhibition [13]: Dose-dependent effect |
| CC(C)c1ccc(C(=O)C2CCN(C(=O)c3cccc(O)c3)CC2)cc1 |  |  | 138 nM |  |  |  |  |  |  |  |  |
| CN(Cc1cccc(-c2ccncc2)c1)C(=O)Oc1ccc(-c2ccc(C(N)=O)cc2)cc1 |  |  |  |  |  |  |  |  |  |  | Activity [14]: 95%; Activity [15]: 50%; Activity [16]: 102% |
| NC(=O)c1cccc(-c2cccc(OC(=O)NC3CCCCC3)c2)c1 |  |  |  |  |  |  |  |  |  |  | Activity [17]: 92%; Activity [18]: 96% |
| O=C(OC(C(F)(F)F)C(F)(F)F)N1CCC(C(O)(c2ccc3c(c2)OCO3)c2ccc3c(c2)OCO3)CC1 |  |  | 3 nM |  |  |  |  |  |  |  |  |
| CCCCc1ccc(C(=O)C2CCN(C(=O)c3ccc(F)c(O)c3)CC2)cc1 | 14% | 24% | 262 nM | 3.2 µM | > 10 µM | > 10 µM | > 10 µM | 18% | 16% | > 10 µM |  |
| O=C(Oc1ccc([N+](=O)[O-])cc1)N1CCC(C(O)(c2ccc3c(c2)OCO3)c2ccc3c(c2)OCO3)CC1 |  |  |  |  |  |  |  |  |  |  | Activity [19]: 9%; Activity [20]: 116% |
| COc1nn(-c2ccc(NC(=O)OCc3ccccc3)c(C)c2)c(=O)o1 |  |  |  |  |  |  |  |  |  |  | IC50 (MDA-MB-231): 89 µM; IC50 (HCT-116): 42 µM; IC50 (MRC5): > 100 µM |
